The values that follow come from patent publication US6515020B1, “Combination of carnitines and resveratrol for prevention or treatment of cerebral and ageing disorders” (Sigma-Tau HealthScience S.p.A., priority 1998, dated 2003).

The test system of experiment [1] is pheochromocytoma cells (PC-12). In words: Survival of pheochromocytoma cells (PC-12) exposed to H2O2. To be noted: for survival rate: 0.1 mM H2O2 30 minutes. Type of experiment: cell-based. The method, then: Tests of survival of pheochromocytoma cells (PC-12) exposed to H2O2 and treated with L-carnitine or resveratrol or with the two products in combination
A culture of pheochromocytoma cells (PC-12) containing 3×10^5 N-cells/ml was exposed to 0.1 mM concentrations of H2O2 for 30 minutes. While the survival of the cells treated with H2O2 alone was approximately 45% after 24 hours, the survival of the cells treated with L-carnitine or with resveratrol was substantially greater, with survival rates of 55, 60 and 62%, respectively, for cells treated with L-carnitine, acetyl L-carnitine and propionyl L-carnitine at concentrations of 10^−8 M, and a survival rate of 69% for cells treated with resveratrol at the concentration of 10^−4 M.

Experiment [2] has as its system spontaneous motility of endothelin (ET-1)-treated mice. In words: Spontaneous motility of mice reduced by intracerebral endothelin (ET-1). It counts as in vivo. The source says:
One of the effects of a vasoactive peptide and neuromodulator such as endothelin is the influence it exerts on animal behaviour in reducing the animals' motility and vestibular reactions.
In these tests, we were able to observe that the typical action of endothelin (ET-1) injected intracerebrally in mice at the dose of 1 pmol/mouse, which is to substantially reduce the animals' spontaneous motility, can be inhibited to a very significant extent by prior administration of carnitines and resveratrol, and, particularly, that the combination of these two types of substances is capable of acting synergistically, restoring the motility reduced by endothelin administration almost to normal values.
The values were observed, keeping 10 mice at a time placed in a container with a photocell and an automatic movement counter; the count was done by observing the mice for periods of 5 minutes 15 minutes after the endothelin (ET-1) injection.

Experiment [3] has as its system sensory neuronal lesions induced by cisplatin. Type of experiment: in vivo, mouse. To be noted: cisplatin-treated mice; 10 animals per group. The method, then:
In these tests, cisplatin was used as a neuronal toxic factor, capable, particularly, of producing lesions in the sensory neurones and thus of impairing proprioceptive perception. The tests evaluated the ability of carnitines, resveratrol and combinations of these substances to restore peripheral sensory perception in the mouse impaired by injection of cisplatin. This ability was assessed by evaluating the reaction to thermal pain induced by a heated water solution in which the animals' tails were dipped according to the tail-flick test, or using the rotating bar test (Apfel S.C., Lipton R.B., Ann. Neurol., 29, 87-90, 1991).
Cisplatin was administered subcutaneously at the dose of 10 mg/kg for eight consecutive days. Over the same period the mice received injections of 100 mg/kg of carnitines and 2.5 mg/kg of resveratrol or combinations of these products.
The values observed, in fact, were 13.5 seconds in the animals treated with acetyl L-carnitine plus resveratrol and 14.4 seconds in those treated with propionyl L-carnitine plus resveratrol.

The mark [4] stands for this setting: carnitines 300 mg/kg intra-peritoneally for three days preceding and half an hour before ET-1 injection.

As for `OO` [H2O2], the “survival of the cells” value in experiment [1] (0.1 mM H2O2 alone for 30 minutes, after 24 hours) is “approximately 45%”.

Take `C[N+](C)(C)C[C@H](O)CC(=O)[O-]` [L-carnitine]: in experiment [2] (setting [4]), the motility reduction percentage stood at 69.6%. In addition, the survival rate in experiment [1] (carnitine at 10^−8 M) is given as 55%.

On to `CC(=O)O[C@H](CC(=O)[O-])C[N+](C)(C)C` [acetyl L-carnitine], for which, in experiment [2] (setting [4]), the motility reduction percentage came to 65.5%. Moreover, the survival rate in experiment [1] (carnitine at 10^−8 M) worked out at 60%.

For the molecule `CC[C@H](C)[C@H](NC(=O)[C@H](CC(=O)O)NC(=O)[C@H](CC(C)C)NC(=O)[C@H](Cc1c[nH]cn1)NC(=O)[C@@H]1CSSC[C@H](N)C(=O)N[C@@H](CO)C(=O)N[C@H]2CSSC[C@H](NC(=O)[C@H](CCC(=O)O)NC(=O)[C@H](CCCCN)NC(=O)[C@H](CC(=O)O)NC(=O)[C@H](CCSC)NC(=O)[C@H](CC(C)C)NC(=O)[C@H](CO)NC(=O)[C@H](CO)NC2=O)C(=O)N[C@@H](C(C)C)C(=O)N[C@@H](Cc2ccc(O)cc2)C(=O)N[C@@H](Cc2ccccc2)C(=O)N1)C(=O)N[C@H](C(=O)N[C@@H](Cc1c[nH]c2ccccc12)C(=O)O)[C@@H](C)CC` [endothelin], in experiment [2] (endothelin alone, 1 pmol/mouse intracerebrally, count for 5 minutes, 15 minutes after injection), the motility reduction percentage was determined as 85.5%.

Consider `CCC(=O)O[C@H](CC(=O)[O-])C[N+](C)(C)C` [propionyl L-carnitine], for which the motility reduction percentage in experiment [2] (setting [4]) is on record as 60.3%. In addition, the survival rate in experiment [1] (carnitine at 10^−8 M) was determined as 62%.

In the case of `Oc1ccc(/C=C/c2cc(O)cc(O)c2)cc1` [resveratrol, trans-3,4′,5-trihydroxy-stilbene], in experiment [2] (alone, resveratrol 2.5 mg/kg, ET-1 treated mice), the motility reduction percentage worked out at 60.4%. In addition, the survival rate in experiment [1] (resveratrol at 10^−4 M) stood at 69%. Also, the “increase in equilibrium time” value in experiment [3] was “significant increase”.
